Values of other authors in patent US20250295639A1, “METHODS FOR TREATING HEART DISEASES” (Cytokinetics, Incorporated, priority 2024, published 2025).

Tested on: patients with oHCM
Details: cited from earlier work

CC(C)n1c(=O)cc(N[C@@H](C)c2ccccc2)[nH]c1=O [mavacamten]
benefit (pVO2, exercise duration, peak METs) in patients receiving beta blockers (EXPLORER-HCM): attenuation of benefit | peak oxygen uptake (pVO2) and other CPET parameters (patients with oHCM): has shown efficacy
